The nature of data set [1]: 13-week cumulative dose pre-clinical studies. The note with it: over 13 weeks; clinical signs of iron accumulation in liver, spleen, kidneys. The data set is classed as in vivo, dogs and rats.
Data set [2] relates to serum phosphate. The experiment in a line: VIT-30: serum phosphate. In kind it is in vivo, human. The text has this:
FIG. 1 is a line and scatter plot showing mean changes in phosphate (left vertical axis) or changes in FGF-23 (right vertical axis) with respect to baseline value at each study day (0, 7, 14, 28, or 56) as indicated on the Horizontal (X) axis for trial VIT30. […] Further details regarding methodology are provided in Example 2.
Study visits were on Days 0, 3, 7, 10, 14, 28, 56, and 120. A phone assessment occurred on Day 90.
Clinical laboratory variables were presented in 2 ways. First, change from baseline to Day 7, Day 14, Day 28, and Day 56 were summarized. Baseline was defined as the last value obtained prior to the first injection of study drug. Second, the number and proportion of subjects with treatment-emergent PCS laboratory values were tabulated. Treatment-emergent PCS values were those in which the baseline value was normal and post-baseline value was abnormal (i.e., met Grade 3 or Grade 4 toxicity criteria from the National Cancer Institute Common Toxicity Criteria for Adverse Events, Version 3.0 [NCI CTCAE]).
For serum phosphate and platelet count, change from baseline to the smallest value after baseline and final value were also summarized. For subjects whose baseline value was above the lower reference range and who had at least 1 value below the lower reference range after baseline, the following were summarized: the number of days from baseline to the first value below the lower reference range and the number of days from the first value below the lower reference range until the first succeeding value within the reference range.

Data set [3] is described as follows: Single-dose toxicity studies. In kind it is in vivo, rodents and dogs.
The conditions of data set [4]: in vivo, cited from earlier work.
For data set [5], the system named is phosphate. The experiment in a line: Prior studies 1VIT04002/1VIT04003: phosphate change after FCM. In kind it is in vivo, human. Conditions: iron deficiency anemia secondary to heavy uterine bleeding; measured at baseline and days 7, 14, 28, 42; N=228.
Data set [6] has as its system serum phosphate. Conditions: previous studies (2-10); cited from earlier work.

Turning to “polynuclear iron (III)-hydroxide 4(R)-(poly-(1→4)-O-α-glucopyranosyl)-oxy-2(R),3(S),5(R),6-tetrahydroxy-hexanoate [FCM]”, in data set [1], the “cumulative dose with no observed adverse effect level” value is “up to 117 mg iron/kg body weight”. In addition, the “mean changes in phosphate with respect to baseline (FIG. 1)” value in data set [2] (Days 7, 14, 28, 56, trial VIT30) is listed as “decreased with respect to baseline values”. Moreover, the “incidence of serum phosphate<2.0 mg/dL” value in data set [2] (chronic kidney disease trial of 2500 patients, 120 days of follow-up (see Example 2)) turned out to be 18.5%. Besides, in data set [2] (treatment-emergent potentially clinically significant value), the “proportion of subjects with PCS low phosphorus” value is 18.5%. Besides, in data set [3], the “safe and tolerated single intravenous dose, as multiple of the equivalent of 1,000 mg iron once weekly in humans” value is “up to 60 times”. Besides, the “tissue distribution after intravenous administration” value in data set [4] (iv) is “mainly found in the liver, spleen, and bone marrow”. For the same substance, the “projected calculated terminal half-life (t1/2)” value in data set [4] is “approximately 16 hours”. Besides, in data set [5], the “mean change in phosphate” value is given as 1.9 mg/dL. For the same substance, the “occurrence of transient reductions in serum phosphate levels” value in data set [6] is listed as “up to 60%”.

These data come from patent US20140162974A1, “METHODS FOR MODULATION OF PHOSPHORUS AND FGF23” (Luitpold Pharmaceuticals, Inc., priority 2012, published 2014).
